Results reported in ChEMBL document CHEMBL1129772, “Synthesis and radical scavenging activity of 3,3-dialkyl-3,4-dihydro-isoquinoline 2-oxides” (Bioorg Med Chem Lett, 1996).

Tested on: Liposome
Assay: In vitro inhibition of peroxyl radical-dependent oxidation of liposomes from soybean phosphatidylcholine by ethanol injection.
Type: functional, Glycine max

SMILES	IC50 [µM]
CC1(C)Cc2cccc(Cl)c2C=[N+]1[O-]	45
CC1(C)Cc2ccc(Cl)cc2C=[N+]1[O-]	41
COc1ccc(F)c2c1CC(C)(C)[N+]([O-])=C2	56
COc1cc2c(cc1OC)CC(C)(C)[N+]([O-])=C2	130
CC(C)(C)/[N+]([O-])=C/c1ccccc1	2170
COc1ccc2c(c1)CC(C)(C)[N+]([O-])=C2	69
CC1(C)Cc2cc(Cl)ccc2C=[N+]1[O-]	55
CC1(C)Cc2ccccc2C=[N+]1[O-]	200
CC1(C)Cc2cc(F)ccc2C=[N+]1[O-]	160
CC1(C)Cc2ccc(F)cc2C=[N+]1[O-]	67
COc1ccc2c(c1)C=[N+]([O-])C(C)(C)C2	67

Stronger by IC50, values ahead:

IC50 [µM]	SMILES
11	COc1ccc2c(c1)CC1(CCCCC1)[N+]([O-])=C2
8	[O-][N+]1=Cc2ccccc2CC12CCCCC2
3	[O-][N+]1=Cc2cc(Cl)ccc2CC12CCCCC2
21	[O-][N+]1=Cc2ccccc2CC12CCCC2
38	COc1cccc2c1C=[N+]([O-])C1(CCCCC1)C2
24	CC1(C)Cc2c(Cl)cccc2C=[N+]1[O-]
18	CC1(C)Cc2cc(Cl)cc(Cl)c2C=[N+]1[O-]
